Where two headings read alike, the source gives them in different places.
Experiments:
DAT [1] = biological target: T1, DAT (Rattus norvegicus, UniProt P23977); test: IDT307 accumulation/transport by fluorescence, DAT; assay type: cell-based
T1 construct: expressed in transfected cells; host or cells: LLC cells
Description: (§1) FIG. 7—Imaging IDT307 with Zeiss LSM-510 Confocal Meta Detector. LLC Cells expressing rDAT were exposed to 10 μM IDT307 for 1 hr before rinsing with KRH buffer and imaging with a Zeiss LSM-510 confocal microscope using the meta detector. Quantification of fluorescence at each wavelength for selected regions of interest was performed using ImageJ analysis software.
(§2) 4-(4-(dimethylamino)phenyl)-1-methylpyridinium iodide, referred to herein as IDT307, is a dye with optical activity that has been discussed by a number of different researchers (Bulgarevich et al., 1992; Kuo, 1978; Coe et al., 2003; Zauhar et al., 1995; Lyapustina et al., 1993). […] IDT307 fluorescent microscopy permits localization of transport activity in single cells and neuronal processes. The IDT307 fluorescent microscopy methods of the invention also permits analysis of many cells, while retaining information about single cells. The IDT307 fluorescence assays of the invention provide detailed mechanistic information about transport. For example, temporal and spatial resolution of transport, transport kinetics, affinity for substrate, turnover rates, surface expression, and binding constants may be measured. Furthermore, features such as voltage dependence of neurotransmitter accumulation can be assessed under voltage clamp using IDT307 fluorescent microscopy.

[2] = Fluorescence spectra of intracellular IDT307; assay type: physicochemical
Description: as §1
FIG. 8—Fluorescence Spectra of Intracellular IDT307. IDT307 maximum absorption=420 nm, maximum emission=510 nm.

SERT [3] = biological target: T2, SERT (Homo sapiens, UniProt P31645); test: [3H]5-HT uptake inhibition in LLC cells stably expressing hSERT; assay type: cell-based; parameters: expressed in transfected cells; settings: [3H]5-HT 30 nM, 5 min at 37° C.
Description: FIG. 2—[^3H]5-HT uptake inhibition by IDT307 of SERT. […] LLC cells stably expressing hSERT were incubated with [^3H]5-HT (30 nM) in the presence of increasing concentrations of IDT307 (10^−12 to 10^−3) for 5 min at 37° C. Specific uptake was defined as total uptake minus uptake in the presence of the inhibitor paroxetine 1 μM.
Target sequence in this assay (P31645 whole entry): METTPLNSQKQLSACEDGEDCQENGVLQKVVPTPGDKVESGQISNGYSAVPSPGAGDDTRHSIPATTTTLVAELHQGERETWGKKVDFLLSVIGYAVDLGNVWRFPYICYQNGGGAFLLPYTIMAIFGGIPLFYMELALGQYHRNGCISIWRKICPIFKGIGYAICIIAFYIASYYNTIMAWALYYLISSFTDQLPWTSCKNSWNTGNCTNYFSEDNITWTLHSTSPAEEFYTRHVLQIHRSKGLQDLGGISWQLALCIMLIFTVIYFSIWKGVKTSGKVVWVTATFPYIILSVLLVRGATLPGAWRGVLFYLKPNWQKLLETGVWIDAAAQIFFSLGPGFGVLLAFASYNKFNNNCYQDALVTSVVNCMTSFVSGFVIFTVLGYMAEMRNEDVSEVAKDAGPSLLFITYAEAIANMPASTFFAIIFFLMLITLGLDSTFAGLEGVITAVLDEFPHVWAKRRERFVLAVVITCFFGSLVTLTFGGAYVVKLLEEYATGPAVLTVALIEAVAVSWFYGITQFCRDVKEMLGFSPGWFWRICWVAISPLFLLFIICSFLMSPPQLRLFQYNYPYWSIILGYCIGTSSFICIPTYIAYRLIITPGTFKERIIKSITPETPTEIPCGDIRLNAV

SERT [4] = biological target: T2, SERT; test: IDT307 accumulation/transport by fluorescence, SERT; assay type: cell-based; parameters: expressed in transfected cells
Description: FIG. 3—IDT307 accumulation using a FlexStation™ fluorimeter. IDT307 accumulation using the FlexStation fluorimeter (excitation 440 nm/emission filter 595 nm). LLC non-transfected and hSERT expressing (control) cells were cultured in separate wells of a 96-well plate until confluent. The accumulation of IDT307 (10 μM) in these wells was then monitored in the presence and absence of paroxetine (1 μM) using the FlexStation.
FIGS. 5A-C—Kinetics of IDT307 accumulation in hSERT using the FlexStation™ fluorimeter. Kinetics of IDT307 accumulation in hSERT using the FlexStation fluorimeter. hSERT expressing cells were cultured in wells of a 96-well plate until confluent. […] SERT specific accumulation for each concentration of IDT307 was then calculated from specific uptake values (total uptake—inhibitor treated uptake).
4-(4-(dimethylamino)phenyl)-1-methylpyridinium iodide, referred to herein as IDT307, is a dye with optical activity that has been discussed by a number of different researchers (Bulgarevich et al., 1992; Kuo, 1978; Coe et al., 2003; Zauhar et al., 1995; Lyapustina et al., 1993). […] The IDT307 fluorescence assays of the invention provide detailed mechanistic information about transport. For example, temporal and spatial resolution of transport, transport kinetics, affinity for substrate, turnover rates, surface expression, and binding constants may be measured. […]
Target sequence in this assay (P31645 whole entry): as above

NET [5] = biological target: T3, NET (Homo sapiens, UniProt P23975); test: IDT307 accumulation/transport by time-resolved fluorescence microscopy in HEK cells expressing hNET; assay type: cell-based; parameters: expressed in transfected cells; host or cells: HEK cells
Source text: as §2
Fluorescent microscopy is used to measure transport using IDT307 which is a fluorescent substrate for several neurotransmitter transporters. Cells that either endogenously or exogenously express a […] are isolated and plated on glass bottom Petri-dishes or multi-well plates that may typically be coated with poly-L-lysine or any other cell adhesive agent. Cells are typically cultured for three or more days. […]

NET [6] = biological target: T3, NET; settings: previously reported, U.S. Publication No. 20040115703; cited from earlier work
DAT [7] = biological target: DAT (Homo sapiens, UniProt Q01959); settings: previously reported, U.S. Publication No. 20040115703; cited from earlier work
SERT [8] = biological target: T2, SERT; settings: cited from earlier work
Target sequence in this assay (P31645 whole entry, species assumed): as the sequence (P31645 whole entry) above

T3 sequence (P23975 whole entry): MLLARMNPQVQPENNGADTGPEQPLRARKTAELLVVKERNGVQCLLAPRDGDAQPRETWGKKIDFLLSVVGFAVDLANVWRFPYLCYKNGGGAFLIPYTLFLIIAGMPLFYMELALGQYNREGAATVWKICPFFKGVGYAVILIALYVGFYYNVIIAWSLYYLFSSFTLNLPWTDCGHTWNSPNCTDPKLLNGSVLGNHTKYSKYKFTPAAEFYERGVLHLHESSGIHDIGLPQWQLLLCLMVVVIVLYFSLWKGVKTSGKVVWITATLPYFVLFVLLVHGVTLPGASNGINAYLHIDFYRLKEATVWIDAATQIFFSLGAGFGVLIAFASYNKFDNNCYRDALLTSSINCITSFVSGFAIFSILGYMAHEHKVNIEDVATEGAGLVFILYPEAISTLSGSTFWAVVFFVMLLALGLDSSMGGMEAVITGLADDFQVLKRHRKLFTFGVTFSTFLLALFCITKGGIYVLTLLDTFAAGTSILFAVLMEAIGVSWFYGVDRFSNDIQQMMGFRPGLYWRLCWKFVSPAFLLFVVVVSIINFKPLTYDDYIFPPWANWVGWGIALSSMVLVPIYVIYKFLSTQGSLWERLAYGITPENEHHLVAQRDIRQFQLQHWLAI
T1 sequence (P23977 whole entry): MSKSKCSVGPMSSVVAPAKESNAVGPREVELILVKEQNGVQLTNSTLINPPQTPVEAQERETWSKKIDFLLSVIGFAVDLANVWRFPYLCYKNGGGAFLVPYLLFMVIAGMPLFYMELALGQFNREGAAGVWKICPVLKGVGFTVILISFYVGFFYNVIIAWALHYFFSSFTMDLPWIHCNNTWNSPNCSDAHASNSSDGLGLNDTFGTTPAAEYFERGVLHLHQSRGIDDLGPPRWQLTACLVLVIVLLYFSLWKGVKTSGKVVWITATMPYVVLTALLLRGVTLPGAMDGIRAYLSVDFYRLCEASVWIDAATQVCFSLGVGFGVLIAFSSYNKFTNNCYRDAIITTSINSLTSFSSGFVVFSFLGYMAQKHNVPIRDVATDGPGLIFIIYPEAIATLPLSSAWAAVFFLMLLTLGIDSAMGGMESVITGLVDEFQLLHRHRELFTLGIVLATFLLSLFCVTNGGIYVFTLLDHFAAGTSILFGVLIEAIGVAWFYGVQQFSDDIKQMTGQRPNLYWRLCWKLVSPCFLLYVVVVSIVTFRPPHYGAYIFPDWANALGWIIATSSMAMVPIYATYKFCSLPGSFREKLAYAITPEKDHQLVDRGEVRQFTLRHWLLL
Sequence of DAT (Homo sapiens, UniProt Q01959) (Q01959 whole entry, species assumed): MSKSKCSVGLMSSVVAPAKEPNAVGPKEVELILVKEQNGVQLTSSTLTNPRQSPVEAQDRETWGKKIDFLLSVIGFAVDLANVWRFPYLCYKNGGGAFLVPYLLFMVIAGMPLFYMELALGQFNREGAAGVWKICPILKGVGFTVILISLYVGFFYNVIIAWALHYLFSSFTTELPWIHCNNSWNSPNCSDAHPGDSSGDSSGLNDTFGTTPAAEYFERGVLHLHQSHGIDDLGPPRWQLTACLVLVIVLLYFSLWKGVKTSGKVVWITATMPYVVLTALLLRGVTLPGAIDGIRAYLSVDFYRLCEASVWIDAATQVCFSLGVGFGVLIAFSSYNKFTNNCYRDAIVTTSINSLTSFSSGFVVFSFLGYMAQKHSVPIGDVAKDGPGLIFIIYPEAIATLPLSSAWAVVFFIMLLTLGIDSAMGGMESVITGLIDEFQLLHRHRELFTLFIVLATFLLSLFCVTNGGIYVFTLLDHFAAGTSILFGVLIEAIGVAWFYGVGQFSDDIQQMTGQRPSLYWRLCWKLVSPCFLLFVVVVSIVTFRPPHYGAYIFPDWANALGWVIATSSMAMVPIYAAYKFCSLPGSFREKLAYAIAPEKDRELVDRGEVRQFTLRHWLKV

SMILES | potency of IDT307 accumulation for DAT (DAT [1]) | transport by DAT (DAT [1]) | maximum absorption [2] | maximum emission [2] | [3H]5-HT uptake inhibition (SERT [3]) | potency of IDT307 accumulation for SERT (SERT [4]) | transport by SERT (SERT [4]) | potency of IDT307 accumulation for hNET (NET [5]) | transport by NET (NET [5]) | transport by NET (NET [6]) | transport by DAT (DAT [7]) | effectiveness as a substrate for the serotonin transporter (SERT [8]) | transport by SERT (SERT [8]; previously reported, U.S. Publication No. 20040115703)
CN(C)c1ccc(-c2cc[n+](C)cc2)cc1.[I-] [IDT307, 4-(4-(dimethylamino)phenyl)-1-methylpyridinium iodide] | sub-mM potency | transported | 420 nm | 510 nm | competes for [^3H]5-HT uptake | sub-mM potency | transported | sub-mM potency | transported |  |  |  | 
CN(C)c1ccc(C=Cc2cc[n+](C)cc2)cc1 [ASP^+, 4-(4-dimethylaminostyrl)-N-methylpyridinium] |  |  |  |  |  |  |  |  |  | transported | transported | only minimally effective as a substrate | transported
